Measurements reported in patent US10221163B2 (priority 2015, dated 2019).
Where two headings read alike, the source gives them in different places.

Assays:
IMP-1 = IMP-1 (Serratia marcescens, UniProt P52699); assay: biochemical; assay type: biochemical; settings: fluorescence assay, CCF2-FA substrate, 2 pM enzyme, 2 hours at 25° C.; read-out: IMP-1 IC50
In short: (§1)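 Fluorescence assay, CCF2-FA substrate (cephalosporin core linking 7-hydroxycoumarin to fluorescein); inhibitor + MBL + substrate, 2 h, 25° C. IC50 by 4-parameter fit, semi-log plot.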

NDM-1 = NDM-1 (Klebsiella pneumoniae, UniProt C7C422); assay: biochemical; assay type: biochemical; settings: fluorescence assay, CCF2-FA substrate, 1 pM enzyme, 2 hours at 25° C.; read-out: NDM-1 IC50
Sequence of NDM-1 (C7C422 whole entry, looked up, species assumed): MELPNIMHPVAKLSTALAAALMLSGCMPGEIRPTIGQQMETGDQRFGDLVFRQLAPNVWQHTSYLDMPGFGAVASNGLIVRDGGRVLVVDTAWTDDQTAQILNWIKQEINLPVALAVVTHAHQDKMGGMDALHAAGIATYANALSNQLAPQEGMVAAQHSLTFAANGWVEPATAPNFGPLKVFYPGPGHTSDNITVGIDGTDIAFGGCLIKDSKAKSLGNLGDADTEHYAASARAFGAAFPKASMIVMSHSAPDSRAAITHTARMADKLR
In short: as §1

VIM-1 = VIM-1 (Pseudomonas aeruginosa (strain ATCC 15692 / DSM 22644 / CIP 104116 / JCM 14847 / LMG 12228 / 1C / PRS 101 / PAO1), UniProt A0A0F7KYQ8); assay: biochemical; settings: CCF2-FA substrate, 30 pM enzyme, 2 hours at 25° C.
In short: as §1

[1] = tested on: Escherichia coli expressing NDM-1 (CLB30005, CLB30016); assay type: cell-based; settings: with imipenem 1 μg/ml; for Escherichia coli expressing NDM-1 (CLB30016) MITC95: 95% inhibition of bacterial growth; for Escherichia coli MITC95: NDM-1 strain, 95% inhibition of growth
In short: (§2)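 Clinical strains grown overnight on blood agar at 35°C, colonies suspended in saline, diluted 1:100 into 1.1×CAMHB. Test compound titrated with imipenem at 1 μg/ml; incubated 22–24 h at 35°C, growth read by absorbance.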

[2] = tested on: Klebsiella pneumoniae expressing VIM-1 (IHMA599644); assay type: cell-based; settings: for Klebsiella pneumoniae expressing VIM-1 (IHMA599644) MITC95: with imipenem 1 μg/ml, 95% inhibition of bacterial growth; for Klebsiella pneumoniae MITC95: VIM-1 strain IHMA599644, with imipenem 1 μg/ml, 95% inhibition of growth
In short: as §2

[3] = tested on: Serratia marcescens expressing IMP-1 (CL5741); assay type: cell-based; settings: for Serratia marcescens expressing IMP-1 (CL5741) MITC95: with imipenem 1 μg/ml, 95% inhibition of bacterial growth; for Serratia marcescens MITC95: IMP-1 strain CL5741, with imipenem 1 μg/ml, 95% inhibition of growth
In short: as §2

[4] = tested on: Pseudomonas aeruginosa efflux+ (MB9798), IMP-1; assay type: cell-based; design: Concentration of metallo-β-lactamase inhibitor which restores susceptibility of efflux + (MB9798) strain to imipenem: unit not given here; settings: C, D serine β-lactamase inhibitor closely related to relebactam; for P. aeruginosa expressing IMP-1, efflux + (MB9798) MITC95: concentration restoring susceptibility to imipenem at 2 μg/mL in the presence of a class A; for Concentration of metallo-β-lactamase inhibitor which restores susceptibility of efflux + (MB9798) strain to imipenem: imipenem at 2 μg/mL, in the presence of a class A
In short: (§3)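 P. aeruginosa PAO1-derived IMP-1 strains, efflux+ MB9798 and efflux− MB9799, tested by standard microbroth MIC with imipenem and/or ceftazidime fixed, usually at CLSI breakpoint, plus fixed class A/C β-lactamase inhibitor against AmpC. Inhibitor titrated; concentration restoring susceptibility recorded; MB9798/MB9799 fold difference indicates efflux.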

[5] = tested on: Pseudomonas aeruginosa efflux− (MB9799), IMP-1; assay type: cell-based; settings: C, D serine β-lactamase inhibitor closely related to relebactam; for P. aeruginosa expressing IMP-1, efflux − (MB9799) MITC95: concentration restoring susceptibility to imipenem at 2 μg/mL in the presence of a class A; for Concentration of metallo-β-lactamase inhibitor which restores susceptibility of efflux − (MB9799) strain to imipenem: imipenem at 2 μg/mL, in the presence of a class A
In short: as §3

[6] = tested on: Pseudomonas aeruginosa MB9798 vs MB9799
Source text: The strain background was Pseudomonas aeruginosa PAO1.
The strain set was then used as a pair to determine the effect of metallo-β-lactamase inhibitors of Formula I on the MIC of imipenem and/or ceftazidime. A fixed concentration of antibiotic was included in standard microbroth MIC tests, usually at the CLSI (Clinical and Laboratory Standards Institute) breakpoint concentration. A fixed amount of a class A/C beta-lactamase inhibitor was also included to inhibit the resident Pseudomonas AmpC enzyme. A serial titration of the metallo-β-lactamase inhibitor was included and the concentration of metallo-β-lactamase inhibitor which restores susceptibility of the strain to the included antibiotic was recorded. That concentration of metallo-β-lactamase inhibitor was then compared between the two strains to determine the fold difference between the efflux+ (MB9798) and efflux− (MB9799) strains. This was taken as an indication of the extent to which the MBLi is subject to efflux.

[7] = ratio MITC95 PA_9798/MITC95 PA_9799
[8] = fluorescence assay, read-out: VIM-1 IC50
[9] = fold difference between efflux+ (MB9798) and efflux− (MB9799) strains, imipenem at 2 μg/mL

Sequence of IMP-1 (P52699 whole entry, looked up, species assumed): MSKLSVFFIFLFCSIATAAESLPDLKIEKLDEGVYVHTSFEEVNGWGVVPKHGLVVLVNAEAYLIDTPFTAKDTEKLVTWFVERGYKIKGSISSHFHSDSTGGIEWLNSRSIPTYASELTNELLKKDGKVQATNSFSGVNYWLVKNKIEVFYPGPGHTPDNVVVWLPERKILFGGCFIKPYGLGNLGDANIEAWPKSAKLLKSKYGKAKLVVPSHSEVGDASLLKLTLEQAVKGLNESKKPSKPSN

Compound	IC50 (IMP-1) [nM]	IC50 (NDM-1) [nM]	IC50 (VIM-1; VIM-1 IC50, fluorescence assay) [nM]	Escherichia coli expressing NDM-1 (CLB30016) MITC95 [1] [µM]	Klebsiella pneumoniae expressing VIM-1 (IHMA599644) MITC95 [2] [µM]	Serratia marcescens expressing IMP-1 (CL5741) MITC95 [3] [µM]	P. aeruginosa expressing IMP-1, efflux + (MB9798) MITC95 [4] [µM]	P. aeruginosa expressing IMP-1, efflux − (MB9799) MITC95 [5] [µM]	Efflux ratio [6, 7]	IC50 (VIM-1; [8]) [nM]	Escherichia coli MITC95 [1] [µM]	Klebsiella pneumoniae MITC95 [2] [µM]	Serratia marcescens MITC95 [3] [µM]	Concentration of metallo-β-lactamase inhibitor which restores susceptibility of efflux + (MB9798) strain to imipenem [4]	Concentration of metallo-β-lactamase inhibitor which restores susceptibility of efflux − (MB9799) strain to imipenem [5]	Efflux ratio [6, 9]
NC[C@@H](CO)NS(=O)(=O)c1ccc(-c2cccc3sc(N)nc23)c(-c2nnn[nH]2)c1S(N)(=O)=O [Example 201, (S)—N^1-(1-amino-3-hydroxypropan-2-yl)-4-(2-aminobenzo[d]thiazol-4-yl)-3-(1H-tetrazol-5-yl)benzene-1,2-disulfonamide]	0.109	0.0199	0.125	1.563	3.125	1.563	0.7813	1.563	0.50	–	–	–	–	–	–	–
CN(C1CCCNC1)S(=O)(=O)c1ccc(-c2cccc3sc(N)nc23)c(-c2nnn[nH]2)c1S(N)(=O)=O (stereo not drawn) [Example 64, 4-(2-amino-1,3-benzothiazol-4-yl)-N1-methyl-N1-piperidin-3-yl-3-(1H-tetrazol-5-yl)benzene-1,2-disulfonamide]	2.16	1.49	5.69	12.5	12.5	1.563	3.125	1.563	2.00	–	–	–	–	–	–	–
NCCNS(=O)(=O)c1ccc(-c2ccnc(CN)c2)c(-c2nn[nH]n2)c1S(N)(=O)=O [Example 461, N1-(2-Aminoethyl)-4-(2-(aminomethyl)pyridin-4-yl)-3-(2H-tetrazol-5-yl)benzene-1,2-disulfonamide]	50.4	42.1	–	–	–	–	–	–	–	4.77	1.563	6.25	3.125	12.5	3.125	4.00
Nc1ccc(-c2ccc(S(=O)(=O)NC[C@]3(N)CCNC3)c(S(N)(=O)=O)c2-c2nn[nH]n2)cn1 [Example 368, (S)-4-(6-aminopyridin-3-yl)-N1-((3-aminopyrrolidin-3-yl)methyl)-3-(2H -tetrazol-5-yl)benzene-1,2-disulfonamide]	0.304	0.203	0.253	–	–	–	1.563	1.563	1.00	–	0.7813	3.125	0.7813	–	–	–
Nc1nc2c(-c3ccc(S(=O)(=O)N[C@@]4(CO)CCNC4)c(S(N)(=O)=O)c3-c3nnn[nH]3)cccc2[nH]1 [Example 176, (S)-4-(2-amino-1H-benzo[d]imidazol-4-yl)-N1-(3-(hydroxymethyl)pyrrolidin-3-yl)-3-(1H-tetrazol-5-yl)benzene-1,2-disulfonamide]	0.728	0.0524	–	0.3906	1.563	0.7813	0.7813	0.7813	1.00	0.192	–	–	–	–	–	–
Nc1nc2c(-c3ccc(S(=O)(=O)N4CCOCC4)c(S(N)(=O)=O)c3-c3nnn[nH]3)cccc2s1 [Example 29, 3-(2-amino-1,3-benzothiazol-4-yl)-6-(morpholin-4-ylsulfonyl)-2-(1H-tetrazol-5-yl)benzenesulfonamide]	2.08	1.35	3.06	25	25	6.25	50	3.125	16.00	–	–	–	–	–	–	–
NCCNS(=O)(=O)c1ccc(-c2cccc(C(=O)NCC(O)CN)c2)c(-c2nn[nH]n2)c1S(N)(=O)=O (stereo in doubt) [Example 347, (S)—N-(3-amino-2-hydroxypropyl)-4′-(N-(2-aminoethyl)sulfamoyl)-3′-sulfamoyl-2′-(2H-tetrazol-5-yl)[1,1′-biphenyl]-3-carboxamide]	3.97	2.04	0.536	–	–	–	1.563	0.7813	2.00	–	1.563	1.563	1.563	–	–	–
NCCNCc1sc(N)nc1-c1cccc(-c2ccc(S(=O)(=O)N[C@@H]3CCNC3)c(S(N)(=O)=O)c2-c2nnn[nH]2)c1 [Example 433]	1.33	0.51	–	–	–	–	–	–	–	0.404	0.7813	1.563	1.563	1.563	0.7813	2.00
NC[C@@H](CO)NS(=O)(=O)c1ccc(-c2cccc(N)n2)c(-c2nn[nH]n2)c1S(N)(=O)=O [Example 382, (S)—N1-(1-amino-3-hydroxypropan-2-yl)-4-(6-aminopyridin-2-yl)-3-(2H-tetrazol-5-yl)benzene-1,2-disulfonamide]	0.651	0.22	–	–	–	–	1.563	1.563	1.00	0.271	1.563	3.125	1.563	–	–	–
NS(=O)(=O)c1c(S(=O)(=O)N[C@@H]2CCNC2)ccc(-c2cccc3[nH]cnc23)c1-c1nn[nH]n1 [Example 193, 4-(1H-benzo[d]imidazol-4-yl)-N1-((R)-pyrrolidin-3-yl)-3-(2H-tetrazol-5-yl)benzene-1,2-disulfonamide]	0.211	0.0392	–	1.563	2.344	1.563	0.7813	0.7813	1.00	0.113	–	–	–	–	–	–
Cn1nc2cccc(-c3ccc(S(=O)(=O)N[C@@H]4CCNC4)c(S(N)(=O)=O)c3-c3nn[nH]n3)c2n1 [Example 281, (R)-4-(2-methyl-2H-benzo[d][1,2,3]triazol-4-yl)-N1-(pyrrolidin-3-yl)-3-(2H-tetrazol-5-yl)benzene-1,2-disulfonamide]	0.75	0.0166	–	–	–	–	3.125	1.563	2.00	0.0515	1.563	3.125	1.563	–	–	–
